The supplement of paper PMC10307832

Experiments:
Assay in all cases: relative viability (nuclei count vs DMSO), 5 days (fraction); higher = more cells survive
[1] = compound: CCn1c(-c2nonc2N)nc2cnc(Oc3cccc(NC(=O)c4ccc(OCCN5CCOCC5)cc4)c3)cc21 + Nc1nc2[nH]cc(CCc3ccc(C(=O)N[C@@H](CCC(=O)O)C(=O)O)cc3)c2c(=O)[nH]1 [Pemetrexed] (partner 0.2 µM)
Summary of the method: (§1)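 Lung cancer cell lines in 1536-well plates were dosed by pin tool the day after seeding, either with one drug alone or with a fixed anchor-drug dose plus five library-drug doses (not always all listed) in √10 steps. After 5 days, cells were fixed and their nuclei stained in one step (final 0.05% Triton X-100, 1% formaldehyde, 1 ug/ml Hoechst), then counted on 4× images. Relative viability is the nuclei count in treated wells divided by that in vehicle wells. Values are medians of duplicate plates.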

[2] = compound: CCn1c(-c2nonc2N)nc2cnc(Oc3cccc(NC(=O)c4ccc(OCCN5CCOCC5)cc4)c3)cc21 + COc1cccc2cc(-c3nc([C@H]4CC[C@H](C(=O)O)CC4)n4ncnc(N)c34)[nH]c12 [OSI-027] (partner 0.5 µM)
Summary of the method: as §1

[3] = compound: CCC1=CN=CN=C1N2CCN(CC2)CC3=NC4=C(N3)C=C(C=C4)C(F)(F)F + Cc1nc(NC(=O)N2CCC[C@H]2C(N)=O)sc1-c1ccnc(C(C)(C)C(F)(F)F)c1 [Alpelisib] (partner 2 µM)
Summary of the method: as §1

[4] = compound: CCC1=CN=CN=C1N2CCN(CC2)CC3=NC4=C(N3)C=C(C=C4)C(F)(F)F + Cc1nc(Nc2ncc(C(=O)Nc3c(C)cccc3Cl)s2)cc(N2CCN(CCO)CC2)n1 [Dasatinib] (partner 0.075 µM)
Summary of the method: as §1

Cell Line	relative viability ([1]; first compound 0.04 µM)	relative viability ([1]; first compound 0.1265 µM)	relative viability ([1]; first compound 0.4 µM)	relative viability ([1]; first compound 1.265 µM)	relative viability ([1]; first compound 4 µM)	relative viability ([2]; first compound 0.04 µM)	relative viability ([2]; first compound 0.1265 µM)	relative viability ([2]; first compound 0.4 µM)	relative viability ([2]; first compound 1.265 µM)	relative viability ([2]; first compound 4 µM)	relative viability ([3]; first compound 0.04 µM)	relative viability ([3]; first compound 0.1265 µM)	relative viability ([3]; first compound 0.4 µM)	relative viability ([3]; first compound 1.265 µM)	relative viability ([3]; first compound 4 µM)	relative viability ([4]; first compound 0.04 µM)	relative viability ([4]; first compound 0.1265 µM)	relative viability ([4]; first compound 0.4 µM)	relative viability ([4]; first compound 1.265 µM)	relative viability ([4]; first compound 4 µM)
SK-LU-1	0.918	0.906	0.772	0.457	0.372	0.359	0.322	0.216	0.199	0.22	1.03	0.995	1.04	0.771	1	0.18	0.172	0.2	0.169	0.205
NCI-H838	0.252	0.218	0.187	0.179	0.156	0.338	0.294	0.228	0.242	0.194	1.1	0.963	0.971	0.994	0.986	0.295	0.237	0.28	0.26	0.289
LCLC-97TM1	0.228	0.196	–	0.192	0.18	0.516	0.655	0.254	0.691	0.528	0.239	0.266	0.246	0.314	0.192	0.881	0.765	0.668	0.816	0.897
BEN	0.725	0.647	0.395	0.412	0.534	0.27	0.267	0.243	0.266	0.24	0.961	0.965	0.898	0.574	0.583	0.241	0.261	0.303	0.335	0.288
NCI-H2023	0.231	0.155	0.214	0.163	0.153	0.497	0.47	0.261	0.299	0.269	0.593	0.576	0.616	0.602	0.571	0.641	0.546	0.529	0.488	0.582
LC-2-ad	0.257	0.269	0.241	0.199	0.206	0.892	0.8	0.39	0.386	0.498	0.715	0.834	0.824	0.915	0.779	0.489	0.542	0.508	0.507	0.484
NCI-H650	1.05	0.799	0.454	0.425	0.458	0.601	0.39	0.254	0.238	0.265	1.02	1.1	0.968	0.997	0.965	0.4	0.413	0.456	0.441	0.494
NCI-H1755	0.46	0.41	0.439	0.364	0.355	0.714	0.738	0.466	0.476	0.45	0.881	0.913	0.923	0.862	0.895	0.427	0.396	0.416	0.375	0.381
EPLC-272H	0.392	0.328	0.253	0.239	0.119	0.363	0.339	0.246	0.234	0.247	0.795	0.85	0.813	0.979	0.981	0.332	0.33	0.313	0.291	0.421
NCI-H1437	0.324	0.317	0.297	0.216	0.201	0.946	0.742	0.553	0.74	0.662	1	0.93	0.831	0.795	0.855	0.339	0.369	0.386	0.328	0.22
EKVX	0.516	0.371	0.346	0.359	0.313	0.839	0.77	0.613	0.65	0.545	0.875	0.828	0.762	0.699	0.866	0.558	0.484	0.527	0.491	0.415
NCI-H1651	0.714	0.693	0.578	0.312	0.471	0.745	0.684	0.596	0.57	0.404	1.01	0.961	0.876	0.818	0.907	0.542	0.294	0.403	0.386	0.368
HCC-15	0.229	0.214	0.217	0.197	0.205	0.806	0.617	0.324	–	0.536	0.954	0.877	0.925	0.892	0.889	0.632	0.552	0.597	0.624	0.594
LCLC-103H	0.394	0.444	0.36	0.345	0.419	0.522	0.448	0.231	0.312	0.323	0.901	1.05	0.952	0.932	1.15	0.473	0.444	0.414	0.483	0.474
NCI-H2347	0.438	0.424	0.399	0.33	0.371	0.502	0.505	0.426	0.334	0.333	1.07	1.07	0.948	0.769	0.938	0.257	0.4	0.281	0.351	0.339
NCI-H1792	0.972	0.724	0.228	0.274	0.449	0.862	0.513	–	0.596	0.7	0.696	0.685	0.641	0.503	0.65	1	0.754	0.515	0.685	0.602

Cell Line	relative viability ([1]; first compound 0.04 µM)	relative viability ([1]; first compound 0.1265 µM)	relative viability ([1]; first compound 0.4 µM)	relative viability ([1]; first compound 1.265 µM)	relative viability ([1]; first compound 4 µM)	relative viability ([2]; first compound 0.04 µM)	relative viability ([2]; first compound 0.1265 µM)	relative viability ([2]; first compound 0.4 µM)	relative viability ([2]; first compound 1.265 µM)	relative viability ([2]; first compound 4 µM)	relative viability ([3]; first compound 0.04 µM)	relative viability ([3]; first compound 0.1265 µM)	relative viability ([3]; first compound 0.4 µM)	relative viability ([3]; first compound 1.265 µM)	relative viability ([3]; first compound 4 µM)	relative viability ([4]; first compound 0.04 µM)	relative viability ([4]; first compound 0.1265 µM)	relative viability ([4]; first compound 0.4 µM)	relative viability ([4]; first compound 1.265 µM)	relative viability ([4]; first compound 4 µM)
NCI-H647	0.21	0.16	0.143	0.122	0.137	0.591	0.393	0.323	0.34	0.278	1.16	1.05	–	1.02	1.05	0.166	0.174	0.186	0.223	0.201
NCI-H1563	0.82	0.769	0.694	0.595	0.734	0.697	0.705	0.576	0.724	0.644	0.887	0.92	1	0.986	0.954	0.472	0.476	0.489	0.435	0.513
NCI-H520	1.01	0.662	0.634	0.372	0.336	0.354	0.36	0.279	0.332	0.224	1.08	0.883	0.838	0.765	1.01	0.212	0.181	0.224	0.206	0.226
HCC-366	0.166	0.173	0.131	0.0447	0.0523	1.21	0.939	0.203	0.0538	0.0491	0.563	0.385	0.335	–	0.395	0.566	0.655	0.567	0.583	0.629
NCI-H2085	0.888	0.591	0.601	0.591	0.664	1.02	0.679	0.602	0.664	0.551	1.05	0.915	0.991	0.879	0.832	0.233	0.245	0.303	0.218	0.251
PC-3 [JPC-3]	1.14	1.03	1.05	0.662	0.928	0.838	0.802	0.701	0.773	0.656	1.06	0.94	1.02	1.04	0.96	0.978	0.935	0.889	1	0.969
HOP-62	0.319	0.309	0.284	0.228	0.252	0.998	0.734	0.56	0.422	0.469	1.16	0.962	0.815	1.01	1.13	0.589	0.584	0.539	0.626	0.653
NCI-H2126	0.8	0.715	0.51	0.765	0.642	0.811	0.754	–	–	0.899	0.74	0.756	0.722	0.639	0.745	0.589	0.593	0.535	0.516	0.485
NCI-H2087	0.777	0.653	0.642	0.603	0.596	0.824	0.719	0.418	0.535	0.551	1.01	0.881	1.05	0.805	0.809	0.729	0.809	0.529	0.508	0.598
NCI-H1793	0.542	0.754	0.69	0.512	0.502	0.31	0.265	0.194	0.248	0.196	0.618	0.553	0.557	–	0.637	0.392	0.382	0.32	–	0.307
RERF-LC-KJ	0.471	0.439	0.418	0.384	0.415	0.625	0.496	0.38	0.371	0.389	0.866	0.676	0.834	0.582	0.743	0.768	0.714	0.846	0.69	0.696
H3255	0.528	0.512	0.503	0.432	0.431	0.831	0.713	0.603	0.506	0.638	0.742	0.721	0.711	0.67	0.65	0.308	0.294	0.347	0.367	0.317
EMC-BAC-2	0.419	0.377	0.298	0.298	0.311	0.364	0.287	0.161	0.18	0.2	0.748	0.697	0.726	0.723	0.774	0.358	0.354	0.322	–	0.289
CAL-12T	1.81	1.38	1.39	1.04	0.996	0.857	0.826	0.43	0.603	0.469	1.25	1.16	1.06	1.32	1.09	0.336	0.352	0.417	0.518	0.36
NCI-H661	0.922	0.994	0.893	0.74	0.513	0.562	0.593	0.445	0.467	0.33	0.561	0.512	0.506	–	0.57	0.951	0.872	0.827	0.772	0.909
SK-MES-1	1.08	0.941	0.829	0.66	0.46	0.651	0.601	0.403	0.386	0.359	0.986	1.05	0.852	0.868	0.86	0.342	0.376	0.416	0.319	0.493
